Source: the RepoRT retention time repository

assay: HILIC, Waters ACQUITY UPLC BEH Amide, 100 × 2.1 mm, 1.7 µm; A: water + 0.125% formic acid + 10 mM ammonium formate; B: 5% water + 95% acetonitrile + 0.125% formic acid + 10 mM ammonium formate; gradient (min/%B) 0/100 2/100 7.7/70 9.5/40 10.25/30 12.75/100 17/100; details: stereoisomer not certain

Row | Structure (SMILES) | LC retention time
1 | CCCCCC=CCC=CCCCCCCCC(=O)OC(CC(=O)[O-])C[N+](C)(C)C (centres undefined) [Linoleoylcarnitine] | 3.1 min
2 | O=C1N(c2ccccc2)c2ccccc2C1(Cc1ccncc1)Cc1ccncc1 [Linopirdine] | 1.17 min
3 | NC(=O)CCCCC1CCSS1 (centres undefined) [Lipoamide] | 1.25 min
4 | O=C1CC(c2ccc(O)cc2)Oc2cc(O)ccc21 (centres undefined) [Liquiritigenin] | 1.3 min
5 | CN1C(CC(=O)c2ccccc2)CCCC1CC(O)c1ccccc1 (centres undefined) [Lobeline A] | 2.02 min
6 | CN(CCCN1c2ccccc2CCc2ccccc21)CC(=O)c1ccc(Cl)cc1 [Lofepramine] | 1.91 min
7 | CC(Oc1c(Cl)cccc1Cl)C1=NCCN1 (centres undefined) [Lofexidine] | 2.65 min
8 | COc1ccc(CN2CCN(C(c3ccc(F)cc3)c3ccc(F)cc3)CC2)c(OC)c1OC [Lomerizine] | 1.7 min
9 | CC(=O)CCCCn1cnc2c1c(=O)n(C)c(=O)n2C [Lomifylline] | 1.09 min
10 | CCOC(=O)N1CCC(=C2c3ccc(Cl)cc3CCc3cccnc32)CC1 [Loratadine] | 1.11 min
11 | O=C1Nc2ccc(Cl)cc2C(c2ccccc2Cl)=NC1O (centres undefined) [Lorazepam] | 1.33 min
12 | CCCCc1nc(Cl)c(CO)n1Cc1ccc(-c2ccccc2-c2nn[nH]n2)cc1 [Losartan] | 1.27 min
13 | CCOC(=O)OC1(C(=O)OCCl)CCC2C3CCC4=CC(=O)C=CC4(C)C3C(O)CC21C (centres undefined) [Loteprednol Etabonate] | 0.97 min
14 | CN1CCN(C2=Nc3ccccc3Oc3ccc(Cl)cc32)CC1 [Loxapine] | 2.18 min
15 | CC(C(=O)O)c1ccc(CC2CCCC2=O)cc1 (centres undefined) [Loxoprofen] | 1.09 min
16 | O=c1[nH]c(=O)c2nccnc2[nH]1 [Lumazine] | 2.49 min
17 | NCCCCC(N)C(=O)NCC(=O)O (centres undefined) [Lys-Gly] | 9.84 min
18 | CC(C)C(NC(=O)C(N)CCCCN)C(=O)O (centres undefined) [Lys-Val] | 9.38 min
19 | NCCCCC(N)C(=O)O (centres undefined) [Lysine] | 9.54 min
20 | CC(C)c1ccc2c(c1)c(SC(C)(C)C)c(CC(C)(C)C(=O)O)n2Cc1ccc(Cl)cc1 [MK-886] | 0.96 min
21 | NC(=O)C=CC(=O)O [Maleamic acid] | 1.12 min
22 | Cc1occc(=O)c1O [Maltol] | 1.32 min
23 | OCC1OC(OC2C(CO)OC(O)C(O)C2O)C(O)C(O)C1O (centres undefined) [Maltose] | 8.75 min
24 | CNCCCC12CCC(c3ccccc31)c1ccccc12 [Maprotiline] | 2.66 min

Row | Structure (SMILES) | LC retention time
25 | CC1(C)SC2C(N=CN3CCCCCC3)C(=O)N2C1C(=O)O (centres undefined) [Mecillinam] | 4.28 min
26 | CC(=O)C1(O)CCC2C3CC(C)C4=CC(=O)CCC4(C)C3CCC21C (centres undefined) [Medroxyprogesterone] | 1.01 min
27 | CC(=O)OC1(C(C)=O)CCC2C3C=C(C)C4=CC(=O)CCC4(C)C3CCC21C (centres undefined) [Megestrol Acetate] | 0.96 min
28 | COc1ccc2[nH]cc(CCNC(C)=O)c2c1 [Melatonin] | 1.24 min
29 | CC1CCN(CCCC(=O)c2ccc(F)cc2)CC1 [Melperone] | 2.12 min
30 | CC12CC3CC(C)(C1)CC(N)(C3)C2 [Memantine] | 4.24 min
31 | COc1cc(C)nc(-n2nc(C)cc2OC)n1 [Mepirizole] | 1.03 min
32 | Cc1cccc(C)c1NC(=O)C1CCCCN1C (centres undefined) [Mepivacaine] | 2.96 min
33 | CCCC(C)(COC(N)=O)COC(N)=O [Meprobamate] | 1.25 min
34 | CN1CCCCC1CCN1c2ccccc2Sc2ccc(S(C)=O)cc21 (centres undefined) [Mesoridazine] | 4.24 min
35 | CN(C)C(=N)N=C(N)N [Metformin] | 5.44 min
36 | CCC(=O)C(CC(C)N(C)C)(c1ccccc1)c1ccccc1 (centres undefined) [Methadone] | 2 min
37 | CNC(C)Cc1ccccc1 (centres undefined) [Methamphetamine] | 3.33 min
38 | Cc1ccccc1-n1c(C)nc2ccccc2c1=O [Methaqualone] | 1.1 min
39 | CSCCC(N)C(=O)O (centres undefined) [Methionine] | 7.37 min
40 | CS(=O)CCC(N)C(=O)O (centres undefined) [Methioninesulfoxide] | 8.62 min
41 | C=CCC1(C(C)C#CCC)C(=O)NC(=O)N(C)C1=O (centres undefined) [Methohexital] | 6.9 min
42 | CN(Cc1cnc2nc(N)nc(N)c2n1)c1ccc(C(=O)NC(CCC(=O)O)C(=O)O)cc1 (centres undefined) [Methotrexate] | 7.67 min
43 | COc1ccc(OC)c(C(O)C(C)N)c1 (centres undefined) [Methoxamine] | 4.75 min
44 | CCC=CCC1C(=O)CCC1CC(=O)OC (centres undefined) [Methyl jasmonate] | 1.04 min
45 | CC(O)C(C)C(=O)O (centres undefined) [Methyl-3-hydroxybutyric acid] | 6.22 min
46 | COC(=O)c1cc(O)c(O)c(O)c1 [Methylgallate] | 1.43 min
47 | COC(=O)CN [Methylglycinate] | 5.29 min
48 | CC12CCC(=O)C=C1CCC1C2CCC2(C)C1CCC2(C)O (centres undefined) [Methyltestosterone] | 1.04 min

Row | Structure (SMILES) | LC retention time
49 | COC(=O)C(N)Cc1ccc(O)cc1 (centres undefined) [Methyltyrosinate] | 4.23 min
50 | CCC1(CC)C(=O)NCC(C)C1=O (centres undefined) [Methyprylon] | 1.18 min
51 | Cc1ncc([N+](=O)[O-])n1CCO [Metronidazole] | 1.17 min
52 | CCC(C)C(=O)OC1CCC=C2C=CC(C)C(CCC3CC(O)CC(=O)O3)C21 (centres undefined) [Mevastatin] | 0.99 min
53 | Cc1ncc2n1-c1ccc(Cl)cc1C(c1ccccc1F)=NC2 [Midazolam] | 1.29 min
54 | CC#CC1(O)CCC2C3CCC4=CC(=O)CCC4=C3C(c3ccc(N(C)C)cc3)CC21C (centres undefined) [Mifepristone] | 1 min
55 | OCCN1CC(O)C(O)C(O)C1CO (centres undefined) [Miglitol] | 8.12 min
56 | CCN(CC)C(=O)C1(c2ccccc2)CC1CN (centres undefined) [Milnacipran] | 3.23 min
57 | Cc1[nH]c(=O)c(C#N)cc1-c1ccncc1 [Milrinone] | 1.6 min
58 | CN1CCN2c3ncccc3Cc3ccccc3C2C1 (centres undefined) [Mirtazapine] | 3.08 min
59 | O=C(NCCN1CCOCC1)c1ccc(Cl)cc1 [Moclobemide] | 2.03 min
60 | NC(=O)CS(=O)C(c1ccccc1)c1ccccc1 (centres undefined) [Modafinil] | 1.27 min
61 | CCCCCCCCC=CCCCCCCCC(=O)OCC(O)CO (centres undefined) [Monoolein] | 1.19 min
62 | CCOc1cc(N)c(Cl)cc1C(=O)NCC1CN(Cc2ccc(F)cc2)CCO1 (centres undefined) [Mosapride] | 1.24 min
63 | COc1c(N2CC3CCCNC3C2)c(F)cc2c(=O)c(C(=O)O)cn(C3CC3)c12 (centres undefined) [Moxifloxacin] | 4.69 min
64 | COc1nc(C)nc(Cl)c1NC1=NCCN1 [Moxonidine] | 3.28 min
65 | CC(OC1C(N)C(O)OC(CO)C1O)C(=O)O (centres undefined) [Muramic acid] | 8.28 min
66 | CN(C)c1nc2c(ncn2C2OC(CO)C(O)C2O)c(=O)[nH]1 (centres undefined) [N2,N2-Dimethylguanosine] | 5.62 min
67 | CNc1nc2c(ncn2C2OC(CO)C(O)C2O)c(=O)[nH]1 (centres undefined) [N2-Methylguanosine] | 6.4 min
68 | CC(C)=CCNc1ncnc2c1ncn2C1OC(CO)C(O)C1O (centres undefined) [N6-Isopentenyladenosine] | 1.48 min
69 | CC(=O)NCCCCNCCCN [N8-Acetylspermidine] | 8.87 min
70 | CN(C)C(CCCN=C(N)N)C(=O)O (centres undefined) [N,N-Dimethylarginine] | 9.1 min
71 | CN(C)C=O [N,N-Dimethylformamide] | 1.29 min
72 | CN(C)CC(=O)O [N,N-Dimethylglycine] | 7.4 min

Row | Structure (SMILES) | LC retention time
73 | CC(=O)Nc1ccc2c(c1)Cc1ccccc1-2 [N-2-Fluorenylacetamide] | 4.74 min
74 | OCC1OC(n2cnc3c(NC4CCCC4O)ncnc32)C(O)C1O (centres undefined) [N-2-Hydroxycyclopentyladenosine] | 3.48 min
75 | O=C(O)CNC(=O)c1ccco1 [N-(2-Furoyl)glycine] | 4.01 min
76 | CC(=O)NC(CCCN=C(N)N)C(=O)O [N-.alpha.-Acetyl-L-arginine] | 8.16 min
77 | CC(=O)NCCc1c[nH]c2ccc(O)cc12 [N-Acetyl-5-hydroxytryptamine] | 1.43 min
78 | CC(=O)NC(CC(=O)O)C(=O)NC(CCC(=O)O)C(=O)O (centres undefined) [N-Acetyl-Asp-Glu] | 8.11 min
79 | CC(=O)NCCC(=O)NC(Cc1cnc[nH]1)C(=O)O [N-Acetyl-L-carnosine] | 8.35 min
80 | CC(=O)N[C@@H](CCC(N)=O)C(=O)O [N-Acetyl-L-glutamine] | 8.18 min
81 | CC(=O)NC(C)C(=O)O (centres undefined) [N-Acetylalanine] | 4.83 min
82 | CC(=O)N1CCCCCC1=O [N-Acetylcaprolactam] | 2.3 min
83 | CC(=O)NC(CS)C(=O)O (centres undefined) [N-Acetylcysteine] | 5.28 min
84 | CC(=O)Nc1ccn(C2OC(CO)C(O)C2O)c(=O)n1 (centres undefined) [N-Acetylcytidine] | 5.08 min
85 | CC(=O)NC(CCC(=O)O)C(=O)O (centres undefined) [N-Acetylglutamic acid] | 7.67 min
86 | CC(=O)NC(Cc1cnc[nH]1)C(=O)O (centres undefined) [N-Acetylhistidine] | 8.07 min
87 | CC(=O)NC(CC(C)C)C(=O)O (centres undefined) [N-Acetylleucine] | 2.29 min
88 | CC(=O)NC1C(O)OC(CO)C(O)C1O (centres undefined) [N-Acetylmannosamine] | 7.01 min
89 | CSCCC(NC(C)=O)C(=O)O (centres undefined) [N-Acetylmethionine] | 3.23 min
90 | CC(=O)NC1C(O)CC(O)(C(=O)O)OC1C(O)C(O)CO (centres undefined) [N-Acetylneuraminic acid] | 9.26 min
91 | CC(=O)NC(Cc1ccccc1)C(=O)O (centres undefined) [N-Acetylphenylalanine] | 2.61 min
92 | CC(=O)NC(CO)C(=O)O (centres undefined) [N-Acetylserine] | 7.67 min
93 | CC(=O)NC(Cc1c[nH]c2ccccc12)C(=O)O (centres undefined) [N-Acetyltryptophan] | 2.81 min
94 | O=C(O)CNC(=O)OCc1ccccc1 [N-Benzyloxycarbonylglycine] | 7.67 min
